{
  "source": "patent US10842892B2",
  "about": "“Methods and apparatus for synthesizing imaging agents, and intermediates thereof” (Lantheus Medical Imaging, Inc., priority 2010, dated 2020)",
  "key": {"healthy adults": {"system": "healthy adults", "assay": "radiation dosimetry after single injection at rest (OLINDA/EXM, MIRD)", "format": "in vivo, human", "description": "This was a non-randomized, open-label, single-dose study. A total of 13 healthy adult subjects were enrolled and administered a single dose of imaging agent 1 at a single study center in the United States. Subjects were screened within 14 days prior to enrollment to confirm subject eligibility, and began baseline assessments at the study center the day before study drug administration. Subjects remained at the study center until completion of the Study Day 2 safety assessments (24±8 hours post-dose). A telephone call was made to study subjects 48±8 hours post-dose for adverse event (AE) monitoring. All subjects returned to the study center approximately one week (5-7 days) post-dose for a follow-up safety visit, and were contacted by telephone approximately 14-17 days post-dose for final serious AE monitoring.\nOn day 1, each subject received a 1-3 mL intravenous bolus injection of imaging agent 1 in a sterile solution of ≤5% ethanol containing ≤50 mg/mL sodium ascorbate in water, calculated to deliver approximately the target dose of imaging agent 1 at the time of injection. The dose was administered in less than 10 seconds, followed immediately by a 3-5 mL saline flush.\nDosimetry analyses. Estimates of radiation dosimetry for the standard organs of the adult male and female models and for the, salivary glands as well as the effective dose equivalent (EDE) (International Commission on Radiological Protection (ICRP), Recommendations of the International Commission on Radiological Protection, Publication 26. Ann ICRP. 1977; 1(3)) and the effective dose (ED) (International Commission on Radiological Protection (ICRP), 1990 Recommendations of the International Commission on Radiological Protection, 60. Ann ICRP. 1990; 21(1-3)) were determined using the OLINDA/EXM software (Stabin, M G, Sparks, R B, et al, OLINDA/EXM: the second-generation personal computer software for internal dose assessment in nuclear medicine.” J Nucl Med 2005 46(6):1023-7) Assessment of radiation dosimetry was based on the MIRD method, with data derived from imaging studies, using methods consistent with MIRD Pamphlet no. 16 (Siegel J A, Thomas S R, Stubbs J B, et al. MIRD pamphlet no. 16: Techniques for quantitative radiopharmaceutical biodistribution data acquisition and analysis for use in human radiation dose estimates. J Nucl Med. 1999 February; 40(2):37S-61S).\nThe attenuation corrected transverse image data slice planes were combined into a single three-dimensional image matrix for each subject and each time point using custom software. These images were then divided into 6 image sets (“anterior”, “posterior”, “salivary”, “thyroid”, “source”, and “full”) of combined coronal plane image data for each subject at each time point, grouping organs with similar anterior to posterior depths. This was done to optimize the ROI creation, and minimize background contribution to the organs contained in each combined coronal plane image. The “anterior” images contained stomach wall, heart wall, and urinary bladder. The “posterior” images contained kidneys, lumbar spine, and spleen (when visible). The “salivary” images contained the salivary glands (parotid and submandibular). The “thyroid” images contained the thyroid. The “full” images combined all of the coronal image planes that contained subject image data and was used for quantification of the brain and liver. The “source” images contained the calibration source.\nAbsolute radioactivity was determined by normalizing ROI sums by a calibration factor derived from the calibration source. Region counts were also adjusted for activity containing underlying and overlying tissue that was not part of the organ or tissue being quantified by utilization of background regions of interest. Total body region counts were also corrected for off body background counts. Appropriate normalization of region sizes for organ and adjacent regions were made. […]"}, "[1]": {"system": "blood brain barrier (BBB)", "assay": "brain uptake with and without blood brain barrier disruption", "format": "in vivo, rat", "settings": "rat", "description": "Male Sprague-Dawley rats were anesthetized with sodium pentobarbital and the left external carotid artery was cannulated close to the internal and external carotid bifurcation. Using saline as control and 25% D-mannitol as hypertonic solution, each were perfused retrogradely in six animals (0.3 mL/kg/sec) for 30 seconds. Two minutes later, ˜1 mCi imaging agent 1 was injected via tail vein and the brain was imaged with a microPET camera for 30 minutes. […] Following completion of imaging, the brain was harvested, photographed and dissected into left and right hemispheres and cerebellum. The tissue content of imaging agent 1 radioactivity was measured by gamma counter and Evans blue levels were determined by fluorescence method for calculation of the % injected dose/gram tissue and μg Evan blue/gram tissue, respectively."}, "[2]": {"settings": "N = 12, Void Interval = 3.5 hours"}},
  "note": "Values joined by “and” are separate entries in the source; they are usually repeats but may differ in a detail not shown here. Equal entries are not always repeated.",
  "data": [
    {"compound": "CC(C)(C)n1ncc(OCc2ccc(COCC[18F])cc2)c(Cl)c1=O", "note": "[imaging agent 1, 2-t-butyl-4-chloro-5-[4-(2-(^18F)fluoroethoxymethyl)-benzyloxy]-2H-pyridazin-3-1]", "values": [
      {"measurement": "mean ED", "setting": "healthy adults; N = 12", "value": 0.072, "unit": "rem/mCi"},
      {"measurement": "mean absorbed dose, heart wall", "setting": "healthy adults; N = 12", "value": 0.18, "unit": "rem/mCi"},
      {"measurement": "mean absorbed dose, kidneys (critical organ)", "setting": "healthy adults; N = 12", "value": 0.24, "unit": "rem/mCi"},
      {"measurement": "ED, Mean", "setting": "healthy adults; [2]", "value": "0.019 mSv/MBq and 1.9E−02 mSv/MBq"},
      {"measurement": "EDE, Mean", "setting": "healthy adults; [2]", "value": "2.2E−02", "unit": "mSv/MBq"},
      {"measurement": "absorbed dose estimate, Mean, Brain", "setting": "healthy adults; [2]", "value": "2.5E−02", "unit": "mSv/MBq"},
      {"measurement": "absorbed dose estimate, Mean, Breasts", "setting": "healthy adults; [2]", "value": "8.8E−03", "unit": "mSv/MBq"},
      {"measurement": "absorbed dose estimate, Mean, Gallbladder Wall", "setting": "healthy adults; [2]", "value": "1.7E−02", "unit": "mSv/MBq"},
      {"measurement": "absorbed dose estimate, Mean, Heart Wall", "setting": "healthy adults; [2]", "value": "0.048 mSv/MBq and 4.8E−02 mSv/MBq"},
      {"measurement": "absorbed dose estimate, Mean, Kidneys", "setting": "healthy adults; [2]", "value": "0.066 mSv/MBq and 6.6E−02 mSv/MBq"},
      {"measurement": "absorbed dose estimate, Mean, LLI Wall", "setting": "healthy adults; [2]", "value": "1.2E−02", "unit": "mSv/MBq"},
      {"measurement": "absorbed dose estimate, Mean, Liver", "setting": "healthy adults; [2]", "value": "3.9E−02", "unit": "mSv/MBq"},
      {"measurement": "absorbed dose estimate, Mean, Lungs", "setting": "healthy adults; [2]", "value": "1.1E−02", "unit": "mSv/MBq"},
      {"measurement": "absorbed dose estimate, Mean, Muscle", "setting": "healthy adults; [2]", "value": "1.0E−02", "unit": "mSv/MBq"},
      {"measurement": "absorbed dose estimate, Mean, Osteogenic Cells", "setting": "healthy adults; [2]", "value": "1.9E−02", "unit": "mSv/MBq"},
      {"measurement": "absorbed dose estimate, Mean, Ovaries", "setting": "healthy adults; [2]", "value": "1.2E−02", "unit": "mSv/MBq"},
      {"measurement": "absorbed dose estimate, Mean, Pancreas", "setting": "healthy adults; [2]", "value": "1.6E−02", "unit": "mSv/MBq"},
      {"measurement": "absorbed dose estimate, Mean, Red Marrow", "setting": "healthy adults; [2]", "value": "1.6E−02", "unit": "mSv/MBq"},
      {"measurement": "absorbed dose estimate, Mean, Salivary", "setting": "healthy adults; [2]", "value": "3.5E−02", "unit": "mSv/MBq"},
      {"measurement": "absorbed dose estimate, Mean, Skin", "setting": "healthy adults; [2]", "value": "7.9E−03", "unit": "mSv/MBq"},
      {"measurement": "absorbed dose estimate, Mean, Small Intestine", "setting": "healthy adults; [2]", "value": "1.3E−02", "unit": "mSv/MBq"},
      {"measurement": "absorbed dose estimate, Mean, Spleen", "setting": "healthy adults; [2]", "value": "1.6E−02", "unit": "mSv/MBq"},
      {"measurement": "absorbed dose estimate, Mean, Stomach Wall", "setting": "healthy adults; [2]", "value": "4.0E−02", "unit": "mSv/MBq"},
      {"measurement": "absorbed dose estimate, Mean, Testes", "setting": "healthy adults; [2]", "value": "9.2E−03", "unit": "mSv/MBq"},
      {"measurement": "absorbed dose estimate, Mean, Thymus", "setting": "healthy adults; [2]", "value": "1.1E−02", "unit": "mSv/MBq"},
      {"measurement": "absorbed dose estimate, Mean, Thyroid", "setting": "healthy adults; [2]", "value": "3.2E−02", "unit": "mSv/MBq"},
      {"measurement": "absorbed dose estimate, Mean, Total Body", "setting": "healthy adults; [2]", "value": "1.2E−02", "unit": "mSv/MBq"},
      {"measurement": "absorbed dose estimate, Mean, ULI Wall", "setting": "healthy adults; [2]", "value": "1.3E−02", "unit": "mSv/MBq"},
      {"measurement": "absorbed dose estimate, Mean, Urinary Bladder Wall", "setting": "healthy adults; [2]", "value": "2.3E−02", "unit": "mSv/MBq"},
      {"measurement": "absorbed dose estimate, Mean, Uterus", "setting": "healthy adults; [2]", "value": "1.2E−02", "unit": "mSv/MBq"},
      {"measurement": "maximum injected dose without exceeding 1 rem ED", "setting": "healthy adults; in vivo", "value": 14, "unit": "mCi"},
      {"measurement": "maximum injected dose without exceeding 10 mSv (1 rem) ED", "setting": "healthy adults; in vivo", "value": 521, "unit": "MBq"},
      {"measurement": "maximum injected dose without exceeding 50 mSv to the critical organ", "setting": "healthy adults; kidneys", "value": 770, "unit": "MBq"},
      {"measurement": "BBB permeability", "setting": "[1]", "value": "high BBB permeability"}
    ]}
  ]
}
